“Also recorded” adds a separate entry of the source.
Key:
MCF-7/R7 [1] = assay: Rhodamine accumulation by flow cytometry in MCF-7/R7; type: cell-based, human; conditions: 5 μM Rhodamine, 30 min, FIG. 7-(c)
Procedure: (§1) The next day, the cells in a fresh medium containing 5 μM Rhodamine were cultured at 37° C. for 30 min in a CO2 incubator to incorporate the compound into the cells. After a lapse of 30 min, the cells were rapidly chilled on ice, washed once with PBS, detached using 2.5% trypsin. […] The collected cells were suspended in Hank's Balanced Salt Solutions with 1% BSA and subjected to fluorometry of the compound using a flow cytometer, FACSCalibur (Becton Dickinson and Company). The value was indicated as Intracellular Accumulation (FIG. 7-(c)).

MCF-7/T8 [2] = assay: Rhodamine accumulation by flow cytometry in MCF-7/T8; type: cell-based, human; conditions: 5 μM Rhodamine, 30 min, FIG. 7-(c)
Procedure: as §1

[3] = test system: PC-13 cell lines with introduced ABCG2; assay: SRB drug sensitivity, PC-13 cell lines with introduced ABCG2 (stated jointly); type: cell-based, human; conditions: PC-13 cell lines with introduced ABCG2, versus vector alone
Procedure: (§2) Test cells in the logarithmic growth phase were dispensed into wells of 96-well plate at 1×10^3 cells/well. After subculture for 24 hours in a CO2 incubator, a serial diluted agent was added to each well. After further incubation for 72 hours, the cells were fixed with trichloroacetic acid (TCA) and the proteins in the cells were stained by 0.4% sulforhodamine B solution. The samples were eluted by 10 mM Tris-HCl for 1 hour, and each well was measured at 560 nm with a 450 nm reference, by a SPECTRAmax 250 plate reader (Molecular Devices Corp.).
(§3) PC-13 cells were transfected with the ABCG2 expression plasmids using Effectene Transfection Reagent (QIAGEN). The experiment was performed according to the attached procedural manual. As a control experiment, other PC-13 cells were transfected with vector alone without the ABCG2 sequence. The two experiments were conducted simultaneously. Two days after the transfection, the original media were replaced with selection media containing 0.2 mg/ml of Geneticin (GIBCO BRL). By culture for a long time under this condition, stable transfectant clones with the introduced plasmids were selected. Two weeks from the transfection, emerging colonies were picked and expression of ABCG2 in the cells was examined by Northern Blot analysis.

PC-13/Vector = assay: SRB drug sensitivity, PC-13 transfected with vector alone; type: cell-based; conditions: Homo sapiens, average ± standard error of three independent experiments
Procedure: as §2, §3

LY = assay: SRB drug sensitivity, LY parental fibroblasts; type: cell-based; conditions: Mus musculus, Fibroblast, 72 hours with agent
PC13/NR13 = assay: SRB drug sensitivity, Compound-A-resistant PC-13/NR13; type: cell-based, human
MCF-7/R7 [4] = assay: Mitoxantrone accumulation by flow cytometry in MCF-7/R7; type: cell-based, human; conditions: 20 μM Mitoxantrone, 90 min, FIG. 7-(b)
Procedure: (§4) The amount of accumulation of Mitoxantrone in the MCF-7 stable transfectants with introduced ABCG2 of the present invention or ABCG2-482T was measured as follows.
(§5) Cells seeded at 1.0×10^6 cells/well in a 6-well culture plate were incubated for overnight. The next day, the cells in a fresh medium containing 20 μM Mitoxantrone were cultured at 37° C. for 90 min in a CO2 incubator to incorporate the compound into the cells. After a lapse of 90 min, the cells were rapidly chilled on ice, washed once with PBS, detached using 2.5% trypsin. The lysate was centrifuged at 400×g at 4° C. for 3 min to collect the cells. The collected cells were suspended in Hank's Balanced Salt Solutions containing 1% BSA and subjected to fluorimetry of the compound using a flow cytometer, Epics Elite (Beckman Coulter, Inc.). The value was indicated as Intracellular Accumulation (FIG. 7-(b)).

LY/NR1 = assay: SRB drug sensitivity, Compound-A-resistant LY/NR1; type: cell-based, mouse
Description: A colony that grew under these conditions was isolated using a cloning ring (Asahi Techno Glass Corporation) and designated as LY/NR1.

PC13 = assay: SRB drug sensitivity, PC-13 parental cells; type: cell-based; conditions: Homo sapiens, 72 hours with agent
MCF-7/R7 [5] = assay: SRB drug sensitivity, MCF-7 with introduced ABCG2 of the present invention; type: cell-based, human; conditions: MCF-7/R7 (ABCG2 of the present invention), FIG. 6
Procedure: (§6) The full length human ABCG2 cDNA of the present invention prepared in Example 5 was inserted into a plasmid for expression in mammalian cells, followed by transfection of human breast cancer cells, MCF-7 cells, with the ABCG2 expression plasmid using Effectene Transfection Reagent (QIAGEN). Likewise, human breast cancer cells, MCF-7 cells, were transfected with a plasmid including the ABCG2-482T cDNA prepared in Example 10. The experiments were carried out according to an attached procedural manual. As a control experiment, the MCF-7 cells were also transfected with vector alone. The three experiments were conducted simultaneously. Two days from the transfection, the original media were replaced with selective media containing 900 μg/ml of Geneticin (GIBCO BRL). By culture over a prolonged term under this condition, stable transfectant clones with introduced plasmid were selected. Two to three weeks from the transfection, emerging colonies were picked and the expression of ABCG2 in the cells was examined by Northern Blot analysis. Northern Blot analysis was performed as described in Example 4: 8 μg of total RNA prepared from each clone using RNeasy mini kit (QIAGEN) was separated on a formaldehyde denatured agarose gel, followed by analysis using the human ABCG2 cDNA fragment of the present invention as a probe.
(§7) The drug sensitivity of the stable transfectant clones which were established from MCF-7 cells with introduced ABCG2- or ABCG2-482T-expression plasmid, was measured using SRB method as described in Example 2 and the sensitivity of each transfectant to drugs was shown as a relative resistance to the cells with introduced vector alone (FIG. 6).

LY/NR2 = assay: SRB drug sensitivity, Compound-A-resistant LY/NR2; type: cell-based, mouse
Description: An emerging colony was isolated as described above and designated as LY/NR2.

HeLa#7 = assay: SRB drug sensitivity, spontaneously resistant HeLa#7; type: cell-based, human
HCT116/NR1 = assay: SRB drug sensitivity, Compound-A-resistant HCT116/NR1; type: cell-based, human
Description: An emerging colony was isolated and designated as HCT116/NR1.

HCT116 = assay: SRB drug sensitivity, HCT116 parental cells; type: cell-based; conditions: Homo sapiens, HCT-116, 72 hours with agent
ABCG2 [6] = assay: SRB drug sensitivity, PC-13 transfected with ABCG2 (clone 3); type: cell-based, human; conditions: human; PC-13/ABCG2-3; average ± standard error of three independent experiments
Procedure: as §2, §3

PC-13/ABCG2-3 = assay: as above; type: cell-based, human
Procedure: as §2, §3

MCF-7/T8 [7] = assay: SRB drug sensitivity, MCF-7 with introduced ABCG2-482T; type: cell-based, human; conditions: MCF-7/T8 (ABCG2-482T)
Procedure: as §6, §7

MCF-7/T8 [8] = assay: Mitoxantrone accumulation by flow cytometry in MCF-7/T8; type: cell-based, human; conditions: 20 μM Mitoxantrone, 90 min, FIG. 7-(b)
Procedure: as §4, §5

PC-13/ABCG2-2 = assay: SRB drug sensitivity, PC-13 transfected with ABCG2 (clone 2); type: cell-based, human
Procedure: as §2, §3

ABCG2 [9] = assay: as above; type: cell-based, human; conditions: human; PC-13/ABCG2-2; average ± standard error of three independent experiments
Procedure: as §2, §3

HeLaS3 = assay: SRB drug sensitivity, HeLaS3 (Compound-A-sensitive); type: cell-based; conditions: Homo sapiens, HeLa S3, 72 hours with agent
[10] = test system: MCF-7 cells expressing introduced BCRP; conditions: report of Doyle et al. 1998; cited from earlier work

Compound: Rhodamine
- Intracellular Accumulation compared with the cell with introduced vector alone (MCF-7/R7 [1]): almost the same level
- Intracellular Accumulation, of that in the cell with introduced vector alone (MCF-7/T8 [2]): about 50%

Compound: O=C1c2c(O)ccc(O)c2C(=O)c2c(NCCNCCO)ccc(NCCNCCO)c21 [Mitoxantrone]
- resistance of cells in which ABCG2 was forcedly expressed [3]: did not display remarkable resistance; also recorded: not resistant
- IC50 (PC-13/Vector): 0.052 ± 0.021 µM
- IC50 (LY): 0.0033 µM
- IC50 (PC13/NR13; Homo sapiens, PC-13, PC13/NR13, SRB, 72 hours with agent): 0.16 µM
- RR: Relative Resistance (PC13/NR13; IC50 PC13/NR13 divided by IC50 PC13): 4.9
- Intracellular Accumulation, of that in the cell with introduced vector alone (MCF-7/R7 [4]): about 50%
- RR: Relative Resistance (LY/NR1; IC50 LY/NR1 divided by IC50 LY): 1.5
- IC50 (LY/NR1; Mus musculus, LY/NR1, SRB, 72 hours with agent): 0.0071 µM
- IC50 (PC13): 0.033 µM
- relative resistance to the cells with introduced vector alone (MCF-7/R7 [5]): 3.8 fold
- RR: Relative Resistance (LY/NR2; IC50 LY/NR2 divided by IC50 LY): 17
- IC50 (LY/NR2; Mus musculus, LY/NR2, SRB, 72 hours with agent): 0.057 µM
- IC50 (HeLa#7; Homo sapiens, HeLa#7, SRB, 72 hours with agent): 0.027 µM
- RR: Relative Resistance (HeLa#7; IC50 HeLa#7 divided by IC50 HeLaS3): 6.1
- IC50 (HCT116/NR1; Homo sapiens, HCT-116, HCT116/NR1, SRB, 72 hours with agent): 0.067 µM
- RR: Relative Resistance (HCT116/NR1; IC50 HCT116/NR1 divided by IC50 HCT116): 9.6
- IC50 (HCT116): 0.007 µM
- IC50 at 72 h (ABCG2 [6]): 0.031 ± 0.018 µM
- Rel. Res. (relative resistance) (PC-13/ABCG2-3; IC50 PC-13/ABCG2-3 divided by IC50 of vector cells): 0.60
- resistance compared to the PC-13 cell with introduced vector alone (PC-13/ABCG2-3; PC-13/ABCG2-3, Example 8): 0.60 fold
- relative resistance to the cells with introduced vector alone (MCF-7/T8 [7]; FIG. 6): 25 fold
- relative resistance to the cells with introduced vector alone (MCF-7/T8 [7]; FIG. 6, listed as mitoxantrone): showed resistance
- Intracellular Accumulation, of that in the cell with introduced vector alone (MCF-7/T8 [8]): about 20%
- Rel. Res. (relative resistance) (PC-13/ABCG2-2; IC50 PC-13/ABCG2-2 divided by IC50 of vector cells): 0.42
- resistance compared to the PC-13 cell with introduced vector alone (PC-13/ABCG2-2; PC-13/ABCG2-2, Example 8): 0.42 fold
- IC50 at 72 h (ABCG2 [9]): 0.022 ± 0.008 µM
- IC50 (HeLaS3): 0.0044 µM
- resistance [10]: 30 fold

— US20070141619A1, “DRUG RESISTANCE-ASSOCIATED GENE AND USE THEREOF” (BANYU PHARMACEUTICAL CO., Ltd., priority 2000, published 2007)
